Assay results reported in patent US4605744A, “Imidazole derivatives” (Hoffmann-La Roche Inc., priority 1985, dated 1986).
Counter-ions that a name gives are not always drawn. Like-named read-outs stand apart in the source and are kept apart here.

Columns and labels:
Assay in all cases: In vitro antibacterial activity (MIC)
Type in all cases: cell-based
S. marcescens S4 = details: Serratia marcescens, S4, S. marcescens S4; read-out: MIC
Procedure: (§1) Drug dilutions are prepared in Mueller-Hinton broth ranging from 128 to 0.008 μg/ml. The diluted agents are dispensed in 100 μl amounts into the wells of a 96-well tray and used immediately or frozen at -10° to -70° C. until needed. Using an automated inoculator, 1.5 μl of a 10^-2 dilution of an overnight culture is added to each well of the tray. The tops of the trays are then sealed using transparent tape and incubated overnight at 37° C. The trays are examined with the aid of a viewer. The lowest concentration at which no growth is observed is considered to be the minimum inhibitory concentration (MIC).

P. mirabilis 503-1136 = details: Proteus mirabilis, 5031136, P. mirabilis 503-1136; read-out: MIC
Procedure: as §1

K. pneumoniae A = details: Klebsiella pneumoniae, K. pneumoniae A; read-out: MIC
Procedure: as §1

P. vulgaris ATCC 6380 = details: Proteus vulgaris
Procedure: as §1

P. vulgaris 101 = details: Proteus vulgaris, 101, P. vulgaris 101; read-out: MIC
Procedure: as §1

S. aureus Smith = details: Staphylococcus aureus, S. aureus Smith; read-out: MIC
Procedure: as §1

S. typhi P58A = details: Salmonella enterica, TYPHI
Procedure: as §1

S. marcescens S1 = details: Serratia marcescens, S1, S. marcescens S1; read-out: MIC
Procedure: as §1

K. pneumoniae 5096 = system: K. pneumoniae 5096
Procedure: as §1

C. diversus CDC 1663-72 = details: Citrobacter koseri, CDC166372; C. diversus CDC 1663-72; read-out: MIC
Procedure: as §1

C. freundii CDC6 = details: Citrobacter freundii, CDC6, C. freundii CDC6; read-out: MIC
Procedure: as §1

P. vulgaris 100 = details: Proteus vulgaris; P. vulgaris 100; read-out: MIC
Procedure: as §1

S. marcescens S147 = details: Serratia marcescens; S. marcescens S147; read-out: MIC
Procedure: as §1

E. coli R-563 = details: Escherichia coli
Procedure: as §1

S. marcescens S714 = details: Serratia marcescens
Procedure: as §1

E. cloacae P99 = details: Enterobacter cloacae, P99, E. cloacae P99
Procedure: as §1

K. pneumoniae 503-964 = details: Klebsiella pneumoniae, 503964; K. pneumoniae 503-964; read-out: MIC
Procedure: as §1

K. pneumoniae 35 = system: K. pneumoniae 35
Procedure: as §1

K. pneumoniae 503-994 = details: Klebsiella pneumoniae, 503994, K. pneumoniae 503-994; read-out: MIC
Procedure: as §1

P. aeruginosa Stone 130 = details: Pseudomonas aeruginosa, STONE130, read-out: MIC
Procedure: as §1

P. aeruginosa 8710 = details: Pseudomonas aeruginosa; P. aeruginosa 8710; read-out: MIC
Procedure: as §1

E. coli 4 = system: E. coli 4
Procedure: as §1

E. coli 48 = system: E. coli 48
Procedure: as §1

S. marcescens 5805 = details: Serratia marcescens, 5805, S. marcescens 5805; read-out: MIC
Procedure: as §1

K. pneumoniae HE7 = details: Klebsiella pneumoniae; K. pneumoniae HE7; read-out: MIC
Procedure: as §1

E. cloacae 9295 = details: Enterobacter cloacae, 9295, E. cloacae 9295; read-out: MIC
Procedure: as §1

E. coli 387-1 = system: E. coli 387-1
Procedure: as §1

P. rettgeri ATCC 9250 = details: Providencia rettgeri, ATCC9250, P. rettgeri ATCC 9250; read-out: MIC
Procedure: as §1

P. mirabilis 620A = details: Proteus mirabilis, 620A, P. mirabilis 620A; read-out: MIC
Procedure: as §1

S. pneumoniae 6302 = details: Streptococcus pneumoniae, 6302, S. pneumoniae 6302; read-out: MIC
Procedure: as §1

S. marcescens SM = details: Serratia marcescens, read-out: MIC
Procedure: as §1

P. mirabilis 2 = details: Proteus mirabilis, 2, P. mirabilis 2; read-out: MIC
Procedure: as §1

E. aerogenes 83 = system: E. aerogenes 83
Procedure: as §1

E. coli 5152 = details: Escherichia coli, 5152, E. coli 5152; read-out: MIC
Procedure: as §1

K. pneumoniae 4964 = details: Klebsiella pneumoniae, 4964, K. pneumoniae 4964; read-out: MIC
Procedure: as §1

S. schottmuelleri = details: read-out: MIC
Procedure: as §1

P. aeruginosa 503-820 = details: Pseudomonas aeruginosa, 503820; P. aeruginosa 503-820; read-out: MIC
Procedure: as §1

P. aeruginosa 503-56 = details: Pseudomonas aeruginosa, 50356, P. aeruginosa 503-56; read-out: MIC
Procedure: as §1

[1] = ATCC6380, P. vulgaris ATCC 6380, read-out: MIC
[2] = Klebsiella pneumoniae, K. pneumoniae 5096, read-out: MIC
[3] = R563, E. coli R-563, read-out: MIC
[4] = S714, S. marcescens S714, read-out: MIC
[5] = Klebsiella pneumoniae, K. pneumoniae 35, read-out: MIC
[6] = Escherichia coli, 4, E. coli 4, read-out: MIC
[7] = Escherichia coli, 48, E. coli 48, read-out: MIC
[8] = Escherichia coli, 3871, E. coli 387-1, read-out: MIC
[9] = Klebsiella aerogenes, 83, E. aerogenes 83, read-out: MIC

| Compound | MIC (S. marcescens S4) [µg/mL] | MIC (P. mirabilis 503-1136) [µg/mL] | MIC (K. pneumoniae A) [µg/mL] | MIC (P. vulgaris 101) [µg/mL] | MIC (S. aureus Smith) [µg/mL] | MIC (S. typhi P58A) [µg/mL] | MIC (S. marcescens S1) [µg/mL] | MIC (C. diversus CDC 1663-72) [µg/mL] | MIC (C. freundii CDC6) [µg/mL] | MIC (P. vulgaris 100) [µg/mL] | MIC (S. marcescens S147) [µg/mL] | MIC (E. cloacae P99) [µg/mL] | MIC (K. pneumoniae 503-964) [µg/mL] | MIC (K. pneumoniae 503-994) [µg/mL] | MIC (S. marcescens 5805) [µg/mL] | MIC (K. pneumoniae HE7) [µg/mL] | MIC (E. cloacae 9295) [µg/mL] | MIC (P. rettgeri ATCC 9250) [µg/mL] | MIC (P. mirabilis 620A) [µg/mL] | MIC (S. marcescens SM) [µg/mL] | further results |
| --- | --- | --- | --- | --- | --- | --- | --- | --- | --- | --- | --- | --- | --- | --- | --- | --- | --- | --- | --- | --- | --- |
| CC1(C)S[C@@H]2[C@H](N=CN3CCC(Cc4ncc[nH]4)CC3)C(=O)N2[C@H]1C(=O)O [Q, [2S-(2alpha,5alpha,6beta)]-6-[[[4-(1H-imidazol-2-yl-methyl)-1-piperidinyl]methylene]amino]-3,3-dimethyl-7-oxo-4-thia-1-azabicyclo[3.2.0]heptane-2-carboxylic acid hydrochloride] | 0.5 | 8 | 0.062 | 8 | 8 | 8 | 0.125 | 0.062 | 64 | 1 | 0.125 | 8 | 0.5 | 8 | 1 | > 128 | 4 | 16 | > 128 | 0.125 | MIC (P. vulgaris ATCC 6380; [1]): 0.016 µg/mL; MIC (K. pneumoniae 5096; [2]): 128 µg/mL; MIC (E. coli R-563; [3]): 0.062 µg/mL; MIC (S. marcescens S714; [4]): 0.25 µg/mL; MIC (K. pneumoniae 35; [5]): 0.25 µg/mL; MIC (P. aeruginosa Stone 130): > 128 µg/mL; MIC (P. aeruginosa 8710): 128 µg/mL; MIC (E. coli 4; [6]): 0.062 µg/mL; MIC (E. coli 48; [7]): 8 µg/mL; MIC (E. coli 387-1; [8]): 0.062 µg/mL; MIC (S. pneumoniae 6302): 2 µg/mL; MIC (P. mirabilis 2): 8 µg/mL; MIC (E. aerogenes 83; [9]): 4 µg/mL; MIC (E. coli 5152): 64 µg/mL; MIC (K. pneumoniae 4964): 4 µg/mL |
| CC1(C)S[C@@H]2[C@H](N=CN3CCC(CCCn4ccnc4CO)CC3)C(=O)N2[C@H]1C(=O)O [R, [2S-(2alpha,5alpha,6beta)]-6-[[[4-[3-[2-(hydroxymethyl)-1H-imidazol-1-yl]propyl-1-piperidinyl]methylene]amino]-3,3-dimethyl-7-oxo-4-thia-1-azabicyclo[3.2.0]heptane-2-carboxylic acid hydrochloride 1.1 molar hydrate] | 0.5 | 4 | < 0.008 | 1 | 8 | 0.062 | 0.062 | 0.016 | 0.062 | 2 | 0.125 | 0.062 | 0.016 | 0.016 | 1 | > 128 | 0.125 | 0.062 | 64 | 0.062 | MIC (P. vulgaris ATCC 6380; [1]): < 0.008 µg/mL; MIC (K. pneumoniae 5096; Klebsiella pneumoniae, 5096, K. pneumoniae 5096): 8 µg/mL; MIC (S. schottmuelleri): < 0.008 µg/mL; MIC (E. coli R-563; R563): 4 µg/mL; MIC (S. marcescens S714; [4]): 1 µg/mL; MIC (P. aeruginosa 503-820): 128 µg/mL; MIC (K. pneumoniae 35; [5]): 0.062 µg/mL; MIC (E. coli 4; Escherichia coli, 4): 2 µg/mL; MIC (E. coli 48; [7]): 0.016 µg/mL; MIC (E. coli 387-1; [8]): 2 µg/mL; MIC (P. mirabilis 2): 0.25 µg/mL; MIC (E. aerogenes 83; Klebsiella aerogenes, 83): 1 µg/mL; MIC (E. coli 5152): 4 µg/mL; MIC (K. pneumoniae 4964): 0.5 µg/mL |
| CC1(C)S[C@@H]2[C@H](N=CN3CCCC(c4ncc[nH]4)C3)C(=O)N2[C@H]1C(=O)O (stereo partly drawn) [P, [2S-(2alpha,5alpha,6beta)]-6-[[[3-(1H-imidazol-2-yl)-1-piperidinyl]methylene]amino]-3,3-dimethyl-7-oxo-4-thia-1-azabicyclo[3.2.0]heptane-2-carboxylicacid hydrochloride] | > 128 | 64 | 2 | 64 | 2 | 2 | 8 | 2 | 4 | 128 | 8 | 8 | 8 | 8 | 128 | 128 | 8 | 4 | > 128 | 8 | MIC (P. vulgaris ATCC 6380; ATCC6380): 0.5 µg/mL; MIC (K. pneumoniae 5096; [2]): 64 µg/mL; MIC (S. schottmuelleri): 2 µg/mL; MIC (E. coli R-563; [3]): 2 µg/mL; MIC (S. marcescens S714; S714): 32 µg/mL; MIC (K. pneumoniae 35; Klebsiella pneumoniae, 35, K. pneumoniae 35): 16 µg/mL; MIC (E. coli 4; [6]): 2 µg/mL; MIC (E. coli 48; [7]): 2 µg/mL; MIC (E. coli 387-1; Escherichia coli, 3871): 4 µg/mL; MIC (P. mirabilis 2): 8 µg/mL; MIC (E. aerogenes 83; [9]): 8 µg/mL; MIC (E. coli 5152): > 128 µg/mL; MIC (K. pneumoniae 4964): 64 µg/mL |
| CN(C)C=Nc1nccn1CCCC1CCN(C=N[C@@H]2C(=O)N3[C@@H]2SC(C)(C)[C@@H]3C(=O)O)CC1 [S, [2S-(2alpha,5alpha,6beta)]-6-[[[4-[3-[2-[[(dimethylamino)methylene]amino]-1H-imidazol-1-yl]propyl]-1-piperidinyl]methylene]amino]-3,3-dimethyl-7-oxo-4-thia-1-azabicyclo[3.2.0]heptane-2-carboxylic acid 1.7 molar hydrochloride 2.6 molar hydrate] | 4 | 8 | 0.5 | 8 | 8 | 0.25 | 4 | 0.5 | 0.5 | 8 | 2 | 1 | 0.5 | 0.5 | 4 | > 128 | 1 | 0.25 | > 128 | 2 | MIC (P. aeruginosa 503-56): > 128 µg/mL; MIC (P. vulgaris ATCC 6380; [1]): 1 µg/mL; MIC (K. pneumoniae 5096; [2]): > 128 µg/mL; MIC (S. schottmuelleri): 0.25 µg/mL; MIC (E. coli R-563; R563): 8 µg/mL; MIC (S. marcescens S714; [4]): 4 µg/mL; MIC (K. pneumoniae 35; [5]): 0.5 µg/mL; MIC (E. coli 4; Escherichia coli, 4): 4 µg/mL; MIC (E. coli 48; Escherichia coli, 48): 0.5 µg/mL; MIC (E. coli 387-1; [8]): 2 µg/mL; MIC (P. mirabilis 2): 2 µg/mL; MIC (E. aerogenes 83; [9]): 4 µg/mL; MIC (E. coli 5152): 8 µg/mL; MIC (K. pneumoniae 4964): 0.5 µg/mL |
